Data on five compounds can be found in patent US9200051B2, “Peptide compound” (TAKEDA PHARMACEUTICAL COMPANY LIMITED, priority 2013, dated 2015).

Holding throughout (format): cell-based
One assay has as its target T1, human GIPR (Homo sapiens, UniProt P48546).
T1 construct: expressed in transfected cells; host or cells: CHO-K1 (CRE-LUC/CHO-K1), plasmid hGIPR/pMSRα-neo
T1 sequence (P48546 22-466): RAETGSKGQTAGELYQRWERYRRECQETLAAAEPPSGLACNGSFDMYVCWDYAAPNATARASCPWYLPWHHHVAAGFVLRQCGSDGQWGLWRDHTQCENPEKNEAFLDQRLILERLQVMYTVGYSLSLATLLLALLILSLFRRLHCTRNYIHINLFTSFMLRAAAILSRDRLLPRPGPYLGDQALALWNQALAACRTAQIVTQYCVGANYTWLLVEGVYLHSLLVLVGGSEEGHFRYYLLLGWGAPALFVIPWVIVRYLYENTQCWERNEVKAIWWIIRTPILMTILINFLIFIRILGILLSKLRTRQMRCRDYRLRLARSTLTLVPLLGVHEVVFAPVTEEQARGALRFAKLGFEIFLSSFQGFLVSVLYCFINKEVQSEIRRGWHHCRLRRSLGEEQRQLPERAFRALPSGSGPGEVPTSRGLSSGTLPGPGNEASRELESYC
Kind of assay: Agonist activity against human GIPR, CRE-luciferase reporter assay (rise in intracellular cAMP) in hGIPR/CRE-LUC/CHO-K1 cells. The source says:
(§1) Evaluation of agonist activity against human GIPR, human GLP-1R and human glucagon R using rise in intracellular cAMP concentration as index
The human GIPR gene having a sequence identical to the sequence of GenBank Accession No. U39231 was cloned into pMSRα-neo vector to prepare hGIPR/pMSRα-neo.
(§2) The luciferase reporter gene having an upstream cAMP response sequence was introduced to CHO-K1 cells to construct CRE-LUC/CHO-K1 cells.
The plasmid hGIPR/pMSRα-neo obtained in (1) was introduced to the CRE-LUC/CHO-K1 cells obtained in (2) to obtain transformants. Next, a cell line induced to express luciferase, i.e., hGIPR/CRE-LUC/CHO-K1 cells, were selected from the obtained transformants by the addition of GIP.
(§3) The hGIPR/CRE-LUC/CHO-K1 cells were inoculated at a cell density of 25 μL/well (5×10^4 cells/well) to a 384-well white plate (Corning), and cultured overnight in Ham F12 medium containing 10% fetal bovine serum, 100 U/mL penicillin and 100 μg/mL streptomycin in a CO2 incubator of 37° C. A medium containing a test compound was added at a concentration of 5 μL/well to the cells, and the resultant cells were incubated for 4 hours in a CO2 incubator of 37° C. to give the final concentration of 1 μM. PicaGene LT7.5 (Toyo Ink Co., Ltd.) was added thereto at a concentration of 30 μL/well, and the mixture was shaken with light shielded. After 30 minutes, the luciferase activity was measured using a plate reader Envision (PerkinElmer). The luciferase activity in the presence of 10 nM GIP was defined as 100%, and the luciferase activity from the addition of DMSO instead of the test compound was defined as 0%. The GIPR agonist activity was calculated with a rise in intracellular cAMP concentration as an index.
A general note: Reporter assays use an easily measured gene product as a stand-in for the process of interest.

In a further assay the target is T2, human glucagon R (Homo sapiens, UniProt P47871).
T2 construct: expressed in transfected cells; host or cells: CHO-K1 (CRE-LUC/CHO-K1), plasmid hGlucagonR/pMSRα-neo
Briefly: Agonist activity against human glucagon R, CRE-luciferase reporter assay in hGlucagonR/CRE-LUC/CHO-K1 cells.
Description: as §1, §2
The human glucagon R gene having a sequence identical to the sequence of GenBank Accession No. NM_000160 was cloned into pMSRα-neo vector to prepare hGlucagonR/pMSRα-neo.
The plasmid hGlucagonR/pMSRα-neo obtained in (7) was introduced to the CRE-LUC/CHO-K1 cells obtained in (2) to obtain transformants. Next, a cell line induced to express luciferase, i.e., hGlucagonR/CRE-LUC/CHO-K1 cells, were selected from the obtained transformants by the addition of glucagon.
as §3
The glucagon R agonist activity was assayed in the same way as above using the hGlucagonR/CRE-LUC/CHO-K1 cells. The luciferase activity in the presence of 10 nM glucagon was defined as 100%, and the luciferase activity from the addition of DMSO instead of the test compound was defined as 0%. The glucagon agonist activity was calculated with a rise in intracellular cAMP concentration as an index.

A further assay addresses T3, human GLP-1R (Homo sapiens, UniProt P43220).
T3 construct: expressed in transfected cells; host or cells: CHO-K1, plasmids hGLP-1/pIRESneo3 and Cre-luc(Zeo)
Briefly: Agonist activity against human GLP-1R, CRE-luciferase reporter assay in hGLP-1R/CRE-luc/CHO-K1 cells.
Description: as §1
Four copies of the cAMP response sequence and the Zeocin resistance gene were introduced to pGL3(R2.2)-Basic Vector (Promega) to construct Cre-luc(Zeo) reporter plasmid.
The human GLP-1R gene having a sequence identical to the sequence of GenBank Accession No. NM_002062 was cloned into pIRESneo3 vector to prepare hGLP-1/pIRESneo3.
The Cre-luc(Zeo) obtained in (3) and the plasmid hGLP-1/pIRESneo3 obtained in (5) were introduced to CHO-K1 cells to obtain transformants. Next, a cell line induced to express luciferase, i.e., hGLP-1R/CRE-luc/CHO-K1 cells, were selected from the obtained transformants by the addition of GLP-1.
as §3
The GLP-1R agonist activity was assayed in the same way as above using the hGLP-1R/CRE-luc/CHO-K1 cells. The luciferase activity in the presence of 10 nM GLP-1 was defined as 100%, and the luciferase activity from the addition of DMSO instead of the test compound was defined as 0%. The GLP-1R agonist activity was calculated with a rise in intracellular cAMP concentration as an index.

The structures appear in SMILES notation. Square brackets hold non-standard residues; d marks the D form. Peptide text beside a SMILES is read from it. * marks the point of attachment. Tyr(Nα-amidino) = N=C(N)N[C@@H](Cc1ccc(O)cc1)C(=O)*; NMeY = CN[C@@H](Cc1ccc(O)cc1)C(=O)O; αMeF = C[C@](N)(Cc1ccccc1)C(=O)O; 4Pal = N[C@@H](Cc1ccncc1)C(=O)O; Aib = CC(C)(N)C(=O)O

T3 sequence (P43220 24-463): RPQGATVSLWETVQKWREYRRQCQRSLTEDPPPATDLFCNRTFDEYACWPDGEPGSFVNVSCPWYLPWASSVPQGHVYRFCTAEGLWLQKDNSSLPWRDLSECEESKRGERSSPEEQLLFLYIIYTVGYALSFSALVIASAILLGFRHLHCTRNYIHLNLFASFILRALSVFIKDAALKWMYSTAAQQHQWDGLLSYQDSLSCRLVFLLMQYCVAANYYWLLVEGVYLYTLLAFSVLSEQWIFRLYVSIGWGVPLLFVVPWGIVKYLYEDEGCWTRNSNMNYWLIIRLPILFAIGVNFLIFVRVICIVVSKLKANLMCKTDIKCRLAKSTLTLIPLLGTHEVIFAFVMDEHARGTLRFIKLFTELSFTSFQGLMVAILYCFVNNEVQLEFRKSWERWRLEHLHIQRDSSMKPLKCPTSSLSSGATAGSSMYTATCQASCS
T2 sequence (P47871 26-477): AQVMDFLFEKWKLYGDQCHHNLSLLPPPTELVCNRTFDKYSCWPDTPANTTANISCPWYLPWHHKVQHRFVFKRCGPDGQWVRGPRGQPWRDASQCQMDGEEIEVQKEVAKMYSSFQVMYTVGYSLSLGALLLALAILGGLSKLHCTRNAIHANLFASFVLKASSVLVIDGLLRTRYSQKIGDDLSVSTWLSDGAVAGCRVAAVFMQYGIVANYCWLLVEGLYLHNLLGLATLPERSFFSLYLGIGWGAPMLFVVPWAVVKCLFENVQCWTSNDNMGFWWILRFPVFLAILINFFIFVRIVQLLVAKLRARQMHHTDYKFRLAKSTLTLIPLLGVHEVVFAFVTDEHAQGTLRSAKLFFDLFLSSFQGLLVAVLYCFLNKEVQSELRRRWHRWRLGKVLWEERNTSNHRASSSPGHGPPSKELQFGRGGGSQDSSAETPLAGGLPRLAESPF

Broadly, the EC50 is the concentration giving half of the maximal effect. Take `CC(C)C[C@H](NC(=O)[C@H](CC(C)C)NC(=O)[C@H](Cc1c[nH]c2ccccc12)NC(=O)[C@H](CCCCN)NC(=O)[C@@H](NC(=O)[C@H](Cc1ccccc1)NC(=O)[C@H](CCC(=O)O)NC(=O)[C@H](C)NC(=O)[C@H](CCC(N)=O)NC(=O)[C@H](C)NC(=O)[C@H](CCC(N)=O)NC(=O)[C@H](CCCCN)NC(=O)[C@H](CC(=O)O)NC(=O)[C@H](CC(C)C)NC(=O)C(C)(C)NC(=O)[C@H](C)NC(=O)C(C)(C)NC(=O)[C@H](Cc1ccc(O)cc1)NC(=O)[C@H](CC(=O)O)NC(=O)[C@H](CO)NC(=O)[C@@H](NC(=O)[C@](C)(Cc1ccccc1)NC(=O)[C@@H](NC(=O)CNC(=O)[C@H](CCC(=O)O)NC(=O)C(C)(C)NC(=O)[C@@H](N)Cc1ccc(O)cc1)[C@@H](C)O)[C@@H](C)O)C(C)C)C(=O)N[C@@H](CCCCN)C(=O)NCC(=O)NCC(=O)N1CCC[C@H]1C(=O)N[C@@H](CO)C(=O)N[C@@H](CO)C(=O)NCC(=O)N[C@@H](C)C(=O)N1CCC[C@H]1C(=O)N1CCC[C@H]1C(=O)N1CCC[C@H]1C(=O)N[C@@H](CO)C(=O)N[C@@H](CCCCN)C(N)=O` [Example 10] (H-Y[Aib]EGT[αMeF]TSDY[Aib]A[Aib]LDKQAQAEFVKWLLKGGPSSGAPPPSK-NH2): the results for the EC50 at human GIPR, on human glucagon R and at human GLP-1R were 0.0054 nM, above 1000 nM and 0.0083 nM, respectively.
Consider `CC(C)C[C@H](NC(=O)[C@H](CC(C)C)NC(=O)[C@H](Cc1c[nH]c2ccccc12)NC(=O)[C@H](CCCCN)NC(=O)[C@@H](NC(=O)[C@H](Cc1ccccc1)NC(=O)[C@H](CCC(=O)O)NC(=O)[C@H](C)NC(=O)[C@H](CCC(N)=O)NC(=O)[C@H](C)NC(=O)[C@H](CCC(N)=O)NC(=O)[C@H](CCCCN)NC(=O)[C@H](CC(=O)O)NC(=O)[C@H](CC(C)C)NC(=O)[C@](C)(Cc1ccccc1)NC(=O)[C@H](CCCCN)NC(=O)C(C)(C)NC(=O)[C@H](Cc1ccc(O)cc1)NC(=O)[C@H](CC(=O)O)NC(=O)[C@H](CO)NC(=O)[C@@H](NC(=O)[C@](C)(Cc1ccccc1)NC(=O)[C@@H](NC(=O)CNC(=O)[C@H](CCC(=O)O)NC(=O)C(C)(C)NC(=O)[C@@H](N)Cc1ccc(O)cc1)[C@@H](C)O)[C@@H](C)O)C(C)C)C(=O)N[C@@H](CCCCN)C(=O)NCC(=O)NCC(=O)N1CCC[C@H]1C(=O)N[C@@H](CO)C(=O)N[C@@H](CO)C(=O)NCC(=O)N[C@@H](C)C(=O)N1CCC[C@H]1C(=O)N1CCC[C@H]1C(=O)N1CCC[C@H]1C(=O)N[C@@H](CO)C(=O)N[C@@H](CCCCN)C(N)=O` [Example 15] (H-Y[Aib]EGT[αMeF]TSDY[Aib]K[αMeF]LDKQAQAEFVKWLLKGGPSSGAPPPSK-NH2), for which the EC50 on human GIPR was 0.013 nM; on human glucagon R, above 1000 nM; on human GLP-1R it was 0.015 nM.
On the same counts, the results for `CC(C)C[C@H](NC(=O)[C@H](CC(C)C)NC(=O)[C@H](Cc1c[nH]c2ccccc12)NC(=O)[C@H](CCCCN)NC(=O)[C@@H](NC(=O)[C@H](Cc1ccccc1)NC(=O)[C@H](CCC(=O)O)NC(=O)[C@H](C)NC(=O)[C@H](CCC(N)=O)NC(=O)[C@H](C)NC(=O)[C@H](CCC(N)=O)NC(=O)[C@H](CCCCN)NC(=O)[C@H](CC(=O)O)NC(=O)[C@H](CC(C)C)NC(=O)C(C)(C)NC(=O)[C@H](Cc1ccncc1)NC(=O)C(C)(C)NC(=O)[C@H](Cc1ccc(O)cc1)NC(=O)[C@H](CC(=O)O)NC(=O)[C@H](CO)NC(=O)[C@@H](NC(=O)[C@](C)(Cc1ccccc1)NC(=O)[C@@H](NC(=O)CNC(=O)[C@H](CCC(=O)O)NC(=O)C(C)(C)NC(=O)[C@@H](N)Cc1ccc(O)cc1)[C@@H](C)O)[C@@H](C)O)C(C)C)C(=O)N[C@@H](CCCCN)C(=O)NCC(=O)NCC(=O)N1CCC[C@H]1C(=O)N[C@@H](CO)C(=O)N[C@@H](CO)C(=O)NCC(=O)N[C@@H](C)C(=O)N1CCC[C@H]1C(=O)N1CCC[C@H]1C(=O)N1CCC[C@H]1C(=O)N[C@@H](CO)C(=O)N[C@@H](CCCCN)C(N)=O` [Example 12] (H-Y[Aib]EGT[αMeF]TSDY[Aib][4Pal][Aib]LDKQAQAEFVKWLLKGGPSSGAPPPSK-NH2) are 0.0072 nM, above 1000 nM and 0.014 nM.
The like results for `CC[C@H](C)[C@H](NC(=O)C(C)(C)NC(=O)[C@H](Cc1ccc(O)cc1)NC(=O)[C@H](CC(=O)O)NC(=O)[C@H](CO)NC(=O)[C@@H](NC(=O)[C@](C)(Cc1ccccc1)NC(=O)[C@@H](NC(=O)CNC(=O)[C@H](CCC(=O)O)NC(=O)C(C)(C)NC(=O)[C@H](Cc1ccc(O)cc1)NC(=N)N)[C@@H](C)O)[C@@H](C)O)C(=O)NC(C)(C)C(=O)N[C@@H](CC(C)C)C(=O)N[C@@H](CC(=O)O)C(=O)N[C@@H](CCCCN)C(=O)N[C@@H](CCC(N)=O)C(=O)N[C@@H](C)C(=O)N[C@@H](CCC(N)=O)C(=O)N[C@@H](C)C(=O)N[C@@H](CCC(=O)O)C(=O)N[C@@H](Cc1ccccc1)C(=O)N[C@H](C(=O)N[C@@H](CCCCN)C(=O)N[C@@H](Cc1c[nH]c2ccccc12)C(=O)N[C@@H](CC(C)C)C(=O)N[C@@H](CC(C)C)C(=O)N[C@@H](CCCCN)C(=O)NCC(=O)NCC(=O)N1CCC[C@H]1C(=O)N[C@@H](CO)C(=O)N[C@@H](CO)C(=O)NCC(=O)N[C@@H](C)C(=O)N1CCC[C@H]1C(=O)N1CCC[C@H]1C(=O)N1CCC[C@H]1C(=O)N[C@@H](CO)C(=O)N[C@@H](CCCCN)C(N)=O)C(C)C` [Example 22] ({Tyr(Nα-amidino)}-[Aib]EGT[αMeF]TSDY[Aib]I[Aib]LDKQAQAEFVKWLLKGGPSSGAPPPSK-NH2) were, in that order, 0.019 nM, above 1000 nM and 0.035 nM.
Consider `CC[C@H](C)[C@H](NC(=O)C(C)(C)NC(=O)[C@H](Cc1ccc(O)cc1)NC(=O)[C@H](CC(=O)O)NC(=O)[C@H](CO)NC(=O)[C@@H](NC(=O)[C@](C)(Cc1ccccc1)NC(=O)[C@@H](NC(=O)CNC(=O)[C@H](CCC(=O)O)NC(=O)C(C)(C)NC(=O)[C@H](Cc1ccc(O)cc1)NC)[C@@H](C)O)[C@@H](C)O)C(=O)NC(C)(C)C(=O)N[C@@H](CC(C)C)C(=O)N[C@@H](CC(=O)O)C(=O)N[C@@H](CCCCN)C(=O)N[C@@H](CCC(N)=O)C(=O)N[C@@H](C)C(=O)N[C@@H](CCC(N)=O)C(=O)N[C@@H](C)C(=O)N[C@@H](CCC(=O)O)C(=O)N[C@@H](Cc1ccccc1)C(=O)N[C@H](C(=O)N[C@@H](CCCCN)C(=O)N[C@@H](Cc1c[nH]c2ccccc12)C(=O)N[C@@H](CC(C)C)C(=O)N[C@@H](CC(C)C)C(=O)N[C@@H](CCCCN)C(=O)NCC(=O)NCC(=O)N1CCC[C@H]1C(=O)N[C@@H](CO)C(=O)N[C@@H](CO)C(=O)NCC(=O)N[C@@H](C)C(=O)N1CCC[C@H]1C(=O)N1CCC[C@H]1C(=O)N1CCC[C@H]1C(=O)N[C@@H](CO)C(=O)N[C@@H](CCCCN)C(N)=O)C(C)C` [Example 23] (H-[NMeY][Aib]EGT[αMeF]TSDY[Aib]I[Aib]LDKQAQAEFVKWLLKGGPSSGAPPPSK-NH2), for which the EC50 on human GIPR and at human GLP-1R was 0.016 nM throughout.
